Calls of active or inactive are those of the source. How the calls were made is not given here.
System: rodent lifetime carcinogenesis bioassay, tumor incidence TD50
Test: carcinogenic potency in animals, long-term in vivo studies, CPDB compilation (AID 1745844)

Oc1ccccc1O gave a TD50 (mouse, strain B6C3F1, females, in feed, site: forestomach, lesion: papilloma, dosed 96 weeks, study length 96 weeks) of 17300 mg/kg/day, a TD50 (mouse, strain B6C3F1, females, in feed, site: liver, lesion: hyperplastic nodule, dosed 96 weeks, study length 96 weeks) of 17300 mg/kg/day and a TD50 (mouse, strain B6C3F1, females, in feed, site: stomach, glandular, lesion: adenoma, dosed 96 weeks, study length 96 weeks) of 471 mg/kg/day. It also gave a TD50 (mouse, strain B6C3F1, males, in feed, site: all sites, lesion: lymphoma and leukemia, combined, dosed 96 weeks, study length 96 weeks) of 2460 mg/kg/day, a TD50 (mouse, strain B6C3F1, males, in feed, site: forestomach, lesion: papilloma, dosed 96 weeks, study length 96 weeks) of 16500 mg/kg/day and a TD50 (mouse, strain B6C3F1, males, in feed, site: lung, lesion: adenoma, dosed 96 weeks, study length 96 weeks) of 16500 mg/kg/day. For the same compound, the TD50 (mouse, strain B6C3F1, males, in feed, site: stomach, glandular, lesion: adenoma, dosed 96 weeks, study length 96 weeks) was 165 mg/kg/day, the TD50 (rat, strain Crj:Wistar, males, in feed, site: forestomach, lesion: squamous-cell carcinoma, dosed 104 weeks, study length 104 weeks) was 6470 mg/kg/day and the TD50 (rat, strain Crj:Wistar, males, in feed, site: forestomach, lesion: squamous-cell papilloma, dosed 104 weeks, study length 104 weeks) was 3180 mg/kg/day. It also gave a TD50 (rat, strain Crj:Wistar, males, in feed, site: liver, lesion: hepatocellular carcinoma, dosed 104 weeks, study length 104 weeks) of 6470 mg/kg/day, a TD50 (rat, strain Crj:Wistar, males, in feed, site: liver, lesion: hyperplastic nodule, dosed 104 weeks, study length 104 weeks) of 3180 mg/kg/day and a TD50 (rat, strain Crj:Wistar, males, in feed, site: stomach, glandular, lesion: adenocarcinoma, dosed 104 weeks, study length 104 weeks) of 200 mg/kg/day. For the same compound, the TD50 (rat, strain Crj:Wistar, males, in feed, site: stomach, glandular, lesion: adenoma, dosed 104 weeks, study length 104 weeks) was 64.5 mg/kg/day, the TD50 (rat, strain Crj:Wistar, males, in feed, site: stomach, glandular, lesion: sarcoma, dosed 104 weeks, study length 104 weeks) was 2080 mg/kg/day and the TD50 (rat, strain F344/DuCrj, females, in feed, site: stomach, glandular, lesion: adenocarcinoma, dosed 104 weeks, study length 104 weeks) was 490 mg/kg/day. For the same compound, the TD50 (rat, strain F344/DuCrj, males, in feed, site: forestomach, lesion: carcinoma, in situ, dosed 51 weeks, study length 52 weeks) was 833 mg/kg/day, the TD50 (rat, strain F344/DuCrj, males, in feed, site: forestomach, lesion: papilloma, dosed 51 weeks, study length 52 weeks) was 833 mg/kg/day and the TD50 (rat, strain F344/DuCrj, males, in feed, site: forestomach, lesion: papilloma, dosed 104 weeks, study length 104 weeks) was 2960 mg/kg/day. The TD50 (rat, strain F344/DuCrj, males, in feed, site: forestomach, lesion: squamous-cell papilloma, dosed 51 weeks, study length 52 weeks) was 833 mg/kg/day, the TD50 (rat, strain F344/DuCrj, males, in feed, site: forestomach, lesion: squamous-cell papilloma, dosed 104 weeks, study length 104 weeks) was 3300 mg/kg/day and the TD50 (rat, strain F344/DuCrj, males, in feed, site: pancreas, lesion: acinar-cell adenoma, dosed 104 weeks, study length 104 weeks) was 1180 mg/kg/day. The TD50 (rat, strain F344/DuCrj, males, in feed, site: stomach, glandular, pyloric region, lesion: adenocarcinoma, dosed 104 weeks, study length 104 weeks) was 3320 mg/kg/day, the TD50 (rat, strain F344/DuCrj, males, in feed, site: stomach, glandular, pyloric region, lesion: adenoma, dosed 104 weeks, study length 104 weeks) was 43.5 mg/kg/day and the TD50 (rat, strain F344/DuCrj, males, in feed, site: stomach, glandular, pyloric region, lesion: sarcoma, dosed 104 weeks, study length 104 weeks) was 1940 mg/kg/day. It also gave a TD50 (rat, strain F344/DuCrj, males, in feed, site: stomach, glandular, lesion: adenocarcinoma, dosed 48 weeks, study length 96 weeks) of 387 mg/kg/day, a TD50 (rat, strain F344/DuCrj, males, in feed, site: stomach, glandular, lesion: adenocarcinoma, dosed 51 weeks, study length 51 weeks) of 130 mg/kg/day and a TD50 (rat, strain F344/DuCrj, males, in feed, site: stomach, glandular, lesion: adenocarcinoma, dosed 72 weeks, study length 72 weeks) of 206 mg/kg/day. For the same compound, the TD50 (rat, strain F344/DuCrj, males, in feed, site: stomach, glandular, lesion: adenocarcinoma, dosed 72 weeks, study length 96 weeks) was 202 mg/kg/day, the TD50 (rat, strain F344/DuCrj, males, in feed, site: stomach, glandular, lesion: adenocarcinoma, dosed 96 weeks, study length 96 weeks) was 141 mg/kg/day and the TD50 (rat, strain F344/DuCrj, males, in feed, site: stomach, glandular, lesion: adenocarcinoma, dosed 104 weeks, study length 104 weeks) was 286 mg/kg/day. The carcinogen call (rat, strain F344/DuCrj, males, in feed, site: stomach, glandular, lesion: adenoma, dosed 48 weeks, study length 96 weeks) was “positive”, the carcinogen call (rat, strain F344/DuCrj, males, in feed, site: stomach, glandular, lesion: adenoma, dosed 51 weeks, study length 51 weeks) was “positive” and the carcinogen call (rat, strain F344/DuCrj, males, in feed, site: stomach, glandular, lesion: adenoma, dosed 51 weeks, study length 52 weeks) was “positive”. For the same compound, the carcinogen call (rat, strain F344/DuCrj, males, in feed, site: stomach, glandular, lesion: adenoma, dosed 72 weeks, study length 72 weeks) was “positive”, the carcinogen call (rat, strain F344/DuCrj, males, in feed, site: stomach, glandular, lesion: adenoma, dosed 72 weeks, study length 96 weeks) was “positive” and the carcinogen call (rat, strain F344/DuCrj, males, in feed, site: stomach, glandular, lesion: adenoma, dosed 96 weeks, study length 96 weeks) was “positive”. The carcinogen call (rat, strain F344/DuCrj, males, in feed, site: stomach, glandular, lesion: several types, types named in the paper, dosed 51 weeks, study length 52 weeks) was “positive”, the TD50 (rat, strain Fischer 344, males, in drinking water, site: prostate, lesion: carcinoma, in situ, dosed 78 weeks, study length 78 weeks) was 236 mg/kg/day (inactive) and the carcinogen call (rat, strain Fischer 344, males, in drinking water, site: urinary bladder, lesion: one or several types, types not named, dosed 78 weeks, study length 78 weeks) was “negative (inactive)”. The TD50 (rat, strain LEW/Crj (Lewis), males, in feed, site: stomach, glandular, lesion: adenocarcinoma, dosed 104 weeks, study length 104 weeks) was 166 mg/kg/day, the TD50 (rat, strain LEW/Crj (Lewis), males, in feed, site: stomach, glandular, lesion: adenoma, dosed 104 weeks, study length 104 weeks) was 64.5 mg/kg/day and the TD50 (rat, strain LEW/Crj (Lewis), males, in feed, site: stomach, glandular, lesion: sarcoma, dosed 104 weeks, study length 104 weeks) was 2080 mg/kg/day. For the same compound, the TD50 (rat, strain SD(Crj:CD) Sprague-Dawley, males, in feed, site: forestomach, lesion: squamous-cell carcinoma, dosed 104 weeks, study length 104 weeks) was 6470 mg/kg/day, the TD50 (rat, strain SD(Crj:CD) Sprague-Dawley, males, in feed, site: forestomach, lesion: squamous-cell papilloma, dosed 104 weeks, study length 104 weeks) was 983 mg/kg/day and the TD50 (rat, strain SD(Crj:CD) Sprague-Dawley, males, in feed, site: stomach, glandular, lesion: adenocarcinoma, dosed 104 weeks, study length 104 weeks) was 151 mg/kg/day. For the same compound, the carcinogen call (rat, strain SD(Crj:CD) Sprague-Dawley, males, in feed, site: stomach, glandular, lesion: adenoma, dosed 104 weeks, study length 104 weeks) was “positive”, the TD50 (rat, strain WKY/NCrj (Wistar), males, in feed, site: forestomach, lesion: squamous-cell papilloma, dosed 104 weeks, study length 104 weeks) was 6470 mg/kg/day and the TD50 (rat, strain WKY/NCrj (Wistar), males, in feed, site: liver, lesion: several types, types named in the paper, dosed 104 weeks, study length 104 weeks) was 12400 mg/kg/day. The TD50 (rat, strain WKY/NCrj (Wistar), males, in feed, site: stomach, glandular, lesion: adenocarcinoma, dosed 104 weeks, study length 104 weeks) was 2080 mg/kg/day and the carcinogen call (rat, strain WKY/NCrj (Wistar), males, in feed, site: stomach, glandular, lesion: adenoma, dosed 104 weeks, study length 104 weeks) was “positive”.

For COc1nn(CSP(=S)(OC)OC)c(=O)s1, the carcinogen call (mouse, strain Charles River CD1, females, in feed, site: liver, lesion: hepatocellular adenoma, dosed 100 weeks, study length 100 weeks) was “negative (inactive)”, the TD50 (mouse, strain Charles River CD1, females, in feed, site: liver, lesion: hepatocellular carcinoma, dosed 100 weeks, study length 100 weeks) was 184 mg/kg/day (inactive) and the TD50 (mouse, strain Charles River CD1, females, in feed, site: liver, lesion: several types, types named in the paper, dosed 100 weeks, study length 100 weeks) was 16200 mg/kg/day (inactive). For the same compound, the TD50 (mouse, strain Charles River CD1, males, in feed, site: liver, lesion: hepatocellular adenoma, dosed 100 weeks, study length 100 weeks) was 17.2 mg/kg/day, the TD50 (mouse, strain Charles River CD1, males, in feed, site: liver, lesion: hepatocellular carcinoma, dosed 100 weeks, study length 100 weeks) was 21.8 mg/kg/day and the TD50 (mouse, strain Charles River CD1, males, in feed, site: liver, lesion: several types, types named in the paper, dosed 100 weeks, study length 100 weeks) was 6.04 mg/kg/day.

C=CCc1ccc(O)c(OC)c1 was tested, and the TD50 (mouse, strain B6C3F1, females, in feed, site: liver, lesion: hepatocellular adenoma + hepatocellular carcinoma + neoplastic nodule, dosed 103 weeks, study length 104 weeks) was 2910 mg/kg/day, the TD50 (mouse, strain B6C3F1, females, in feed, site: liver, lesion: hepatocellular adenoma + hepatocellular carcinoma, dosed 103 weeks, study length 104 weeks) was 2910 mg/kg/day and the TD50 (mouse, strain B6C3F1, females, in feed, site: lung, lesion: alveolar/bronchiolar adenoma + alveolar/bronchiolar carcinoma, dosed 103 weeks, study length 104 weeks) was 25300 mg/kg/day. The TD50 (mouse, strain B6C3F1, males, in feed, site: any site (literature study), lesion: several types, types named in the paper, dosed 103 weeks, study length 104 weeks) was 1550 mg/kg/day, the TD50 (mouse, strain B6C3F1, males, in feed, site: liver, lesion: hepatocellular adenoma + hepatocellular carcinoma + neoplastic nodule, dosed 103 weeks, study length 104 weeks) was 451 mg/kg/day and the TD50 (mouse, strain B6C3F1, males, in feed, site: liver, lesion: hepatocellular adenoma + hepatocellular carcinoma, dosed 103 weeks, study length 104 weeks) was 451 mg/kg/day. The TD50 (mouse, strain B6C3F1, males, in feed, site: liver, lesion: hepatocellular adenoma, dosed 103 weeks, study length 104 weeks) was 781 mg/kg/day, the TD50 (mouse, strain B6C3F1, males, in feed, site: liver, lesion: hepatocellular carcinoma, dosed 103 weeks, study length 104 weeks) was 710 mg/kg/day and the TD50 (mouse, strain B6C3F1, males, in feed, site: thyroid gland, lesion: follicular-cell adenoma, dosed 103 weeks, study length 104 weeks) was 8520 mg/kg/day. The carcinogen call (mouse, strain Charles River CD1, females, in feed, site: liver, lesion: one or several types, types not named, dosed 50 weeks, study length 78 weeks) was “negative (inactive)”, the carcinogen call (mouse, strain Charles River CD1, females, in feed, site: lung, lesion: adenoma, dosed 50 weeks, study length 78 weeks) was “negative (inactive)” and the carcinogen call (rat, strain Fischer 344, females, in feed, site: any site (literature study), lesion: several types, types named in the paper, dosed 103 weeks, study length 104 weeks) was “negative (inactive)”. For the same compound, the TD50 (rat, strain Fischer 344, males, in feed, site: any site (literature study), lesion: several types, types named in the paper, dosed 103 weeks, study length 104 weeks) was 293 mg/kg/day and the TD50 (rat, strain Fischer 344, males, in feed, site: lung, lesion: alveolar/bronchiolar adenoma + alveolar/bronchiolar carcinoma, dosed 103 weeks, study length 104 weeks) was 424 mg/kg/day (inactive).

For ClCOCC(COCCl)OCCl, the TD50 (mouse, strain Ha/ICR, females, i.p., site: abdomen, lesion: sarcoma, dosed 76 weeks, study length 76 weeks) was 3.44 mg/kg/day.

In the case of S=C=Nc1ccccc1, the TD50 (mouse, strain B6AKF1, females, oral dosing, site: any site (literature study), lesion: several types, types named in the paper, dosed 76 weeks, study length 76 weeks) is reported as 39.4 mg/kg/day (inactive), the TD50 (mouse, strain B6AKF1, females, oral dosing, site: liver, lesion: hemangioma, dosed 76 weeks, study length 76 weeks) is reported as 138 mg/kg/day (inactive) and the carcinogen call (mouse, strain B6AKF1, females, oral dosing, site: lung, lesion: adenoma, dosed 76 weeks, study length 76 weeks) is reported as “negative (inactive)”. For the same compound, the carcinogen call (mouse, strain B6AKF1, males, oral dosing, site: any site (literature study), lesion: several types, types named in the paper, dosed 76 weeks, study length 76 weeks) was “negative (inactive)”, the carcinogen call (mouse, strain B6AKF1, males, oral dosing, site: liver, lesion: hepatoma, dosed 76 weeks, study length 76 weeks) was “negative (inactive)” and the carcinogen call (mouse, strain B6AKF1, males, oral dosing, site: lung, lesion: adenoma, dosed 76 weeks, study length 76 weeks) was “negative (inactive)”. The carcinogen call (mouse, strain B6C3F1, females, oral dosing, site: any site (literature study), lesion: one or several types, types not named, dosed 76 weeks, study length 76 weeks) was “negative (inactive)”, the carcinogen call (mouse, strain B6C3F1, females, oral dosing, site: liver, lesion: hepatoma, dosed 76 weeks, study length 76 weeks) was “negative (inactive)” and the carcinogen call (mouse, strain B6C3F1, females, oral dosing, site: lung, lesion: several types, types named in the paper, dosed 76 weeks, study length 76 weeks) was “negative (inactive)”. For the same compound, the TD50 (mouse, strain B6C3F1, males, oral dosing, site: any site (literature study), lesion: several types, types named in the paper, dosed 76 weeks, study length 76 weeks) was 40.2 mg/kg/day (inactive), the TD50 (mouse, strain B6C3F1, males, oral dosing, site: liver, lesion: hepatoma, dosed 76 weeks, study length 76 weeks) was 128 mg/kg/day (inactive) and the TD50 (mouse, strain B6C3F1, males, oral dosing, site: lung, lesion: adenoma, dosed 76 weeks, study length 76 weeks) was 128 mg/kg/day (inactive).
